In patent EP0336446A1, “Gene and gene product for the production of beta-lactam-compounds” (BIOCHEMIE GESELLSCHAFT M.B.H., priority 1988, dated 1989):
“And” between values parts separate entries of the source, which are not always exact repeats. Identical values can stand only once.

Assays:
[1] = test system: Micrococcus luteus ATCC 9341/BC 85; assay: Agar diffusion test of penicillin standards (inhibition zone diameter); format: cell-based
PAT [2] = target: T1, PAT (Penicillium chrysogenum, UniProt P15802); assay: Microbiological agar diffusion test (Micrococcus luteus ATCC 9341/BC 85) of transacylation of Isopenicillin N with PaCoA by enzyme preparation AS-Präzipitat; format: biochemical, Penicillium chrysogenum P2/ATCC 48271
T1 sequence (P15802 103-357 limits assumed): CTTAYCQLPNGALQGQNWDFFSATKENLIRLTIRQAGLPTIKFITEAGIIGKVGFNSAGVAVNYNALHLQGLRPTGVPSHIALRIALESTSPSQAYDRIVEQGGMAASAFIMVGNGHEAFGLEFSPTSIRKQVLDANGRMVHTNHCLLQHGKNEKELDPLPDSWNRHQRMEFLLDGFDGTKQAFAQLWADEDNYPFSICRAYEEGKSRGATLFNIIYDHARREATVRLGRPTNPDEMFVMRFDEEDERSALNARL
T1 sequence (P15802 1-102 limits assumed): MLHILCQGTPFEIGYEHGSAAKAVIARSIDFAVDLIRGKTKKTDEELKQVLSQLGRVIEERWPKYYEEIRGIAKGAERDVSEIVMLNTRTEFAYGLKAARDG
Experimental: (§1) Die, wie in Beispiel 2 beschrieben, hergestellte Enzymrohpräzipitation wird im mikrobiologischen Agardiffusionstest hinsichtlich Transacylierung von 6-APA bzw. Isopenicillin N mit PaCoA und Spaltung von Kalium Penicillin V mit bzw. ohne Inhibitorzusatz folgendermaßen getestet: Testkeim: Micrococcus luteus ATCC 9341/BC 85, 0,5% Einsaat Testmedium: Antibiotic Medium 1 (DIFCO), 110 ml Testplatte: Nunc 243x243x18 mm Probe: 50 µl pro Näpfchen (6 mm Durchmesser) Inkubation: 37°, 15 Stunden Enzym: AS-Präzipitat (hergestellt wie in Beispiel 2 beschrieben): 1 ml zentrifugiert (20.000 Upm/10 min), Überstand verworfen, Pellet in 20 ml RP + Z resuspendiert. RP + Z: 0,1 M Phosphatpuffer pH 7,5 + 1 mM DTT + 10 mM MgCl₂
Sofort bzw. nach 7, 30 und 60 Minuten Inkubationszeit werden 20 µl Aliquots der Ansätze entnommen, 1:5 mit 50% Ethanol (Stoppen der Enzymreaktion) verdünnt und im Agardiffusionstest auf Penicillingehalt getestet.

PAT [3] = target: T1, PAT; assay: Substrate specificity of purified PAT (fraction AL 278/2), specific enzyme activity by HPLC; format: biochemical, Penicillium chrysogenum P2/ATCC 48271
PAT [4] = target: T1, PAT; assay: Penicillin V cleavage by AS-Präzipitat, residual penicillin by agar diffusion test; format: biochemical, Penicillium chrysogenum P2/ATCC 48271
Experimental: as §1

[5] = labelled substance = Acylakzeptor, Acyldonator PaCoA
[6] = labelled substance = Acylakzeptor, Acyldonator PeCoA
[7] = labelled substance = Acyldonator, Acylakzeptor H₂O, Produkt 6-APA

## CC1(C)S[C@@H]2[C@H](NC(=O)CCC[C@H](N)C(=O)O)C(=O)N2[C@H]1C(=O)O [Isopenicillin N Nr. 28, Isopenicillin N]
[1]; Micrococcus luteus, ATCC9341, 15 h, read-out: HH ⌀ mm, Isopenicillin N Std. 12.5 µg/ml
  zone of inhibition at 12.5 µg/mL: 12.4 mm
[1]; Micrococcus luteus, ATCC9341, 15 h, read-out: HH ⌀ mm, Isopenicillin N Std. 25 µg/ml
  zone of inhibition at 25 µg/mL: 16.5 mm
[1]; Micrococcus luteus, ATCC9341, 15 h, read-out: HH ⌀ mm, Isopenicillin N Std. 50 µg/ml
  zone of inhibition at 50 µg/mL: 20 mm
PAT [2]; a) ohne Inhibitor, 7′, listed as Nr. 28
  Transacylierung von Isopenicillin N (#28 u 36) mit PaCoA (HH ⌀ mm): 25.5 mm
PAT [2]; a) ohne Inhibitor, 30′, listed as Nr. 28
  Transacylierung von Isopenicillin N (#28 u 36) mit PaCoA (HH ⌀ mm): 26.0 mm
PAT [2]; a) ohne Inhibitor, 60′, listed as Nr. 28
  Transacylierung von Isopenicillin N (#28 u 36) mit PaCoA (HH ⌀ mm): 23.0 mm
PAT [2]; a) ohne Inhibitor, s (sofort), listed as Nr. 28
  Transacylierung von Isopenicillin N (#28 u 36) mit PaCoA (HH ⌀ mm): 22.5 mm
PAT [2]; b) 2 mM Jodacetamid, 7′, listed as Nr. 28
  Transacylierung von Isopenicillin N (#28 u 36) mit PaCoA (HH ⌀ mm): 20.8 mm
PAT [2]; b) 2 mM Jodacetamid, 30′, listed as Nr. 28
  Transacylierung von Isopenicillin N (#28 u 36) mit PaCoA (HH ⌀ mm): 18.3 mm
PAT [2]; b) 2 mM Jodacetamid, 60′, listed as Nr. 28
  Transacylierung von Isopenicillin N (#28 u 36) mit PaCoA (HH ⌀ mm): 14.7 mm
PAT [2]; b) 2 mM Jodacetamid, s (sofort), listed as Nr. 28
  Transacylierung von Isopenicillin N (#28 u 36) mit PaCoA (HH ⌀ mm): 21.1 mm
PAT [2]; c) 2 mM PMSF, 7′, listed as Nr. 28
  Transacylierung von Isopenicillin N (#28 u 36) mit PaCoA (HH ⌀ mm): 24.7 mm
PAT [2]; c) 2 mM PMSF, 30′, listed as Nr. 28
  Transacylierung von Isopenicillin N (#28 u 36) mit PaCoA (HH ⌀ mm): 25.7 mm
PAT [2]; c) 2 mM PMSF, 60′, listed as Nr. 28
  Transacylierung von Isopenicillin N (#28 u 36) mit PaCoA (HH ⌀ mm): 20.7 mm
PAT [2]; c) 2 mM PMSF, s (sofort), listed as Nr. 28
  Transacylierung von Isopenicillin N (#28 u 36) mit PaCoA (HH ⌀ mm): 22.7 mm

## CC1(C)S[C@@H]2[C@H](NC(=O)CCC[C@H](N)C(=O)O)C(=O)N2[C@H]1C(=O)O [Isopenicillin N Nr. 36, Isopenicillin N]
[1]; Isopenicillin N Std. 12.5 µg/ml
  HH ⌀ mm: 18.4 mm
[1]; Isopenicillin N Std. 25 µg/ml
  HH ⌀ mm: 22.1 mm
[1]; Isopenicillin N Std. 50 µg/ml
  HH ⌀ mm: 24.5 mm
PAT [2]; a) ohne Inhibitor, 7′, listed as Nr. 36
  Transacylierung von Isopenicillin N (#28 u 36) mit PaCoA (HH ⌀ mm): 28.3 mm
PAT [2]; a) ohne Inhibitor, 30′, listed as Nr. 36
  Transacylierung von Isopenicillin N (#28 u 36) mit PaCoA (HH ⌀ mm): 30.8 mm
PAT [2]; a) ohne Inhibitor, 60′, listed as Nr. 36
  Transacylierung von Isopenicillin N (#28 u 36) mit PaCoA (HH ⌀ mm): 28.7 mm
PAT [2]; a) ohne Inhibitor, s (sofort), listed as Nr. 36
  Transacylierung von Isopenicillin N (#28 u 36) mit PaCoA (HH ⌀ mm): 27.0 mm
PAT [2]; b) 2 mM Jodacetamid, 7′, listed as Nr. 36
  Transacylierung von Isopenicillin N (#28 u 36) mit PaCoA (HH ⌀ mm): 25.0 mm
PAT [2]; b) 2 mM Jodacetamid, 30′, listed as Nr. 36
  Transacylierung von Isopenicillin N (#28 u 36) mit PaCoA (HH ⌀ mm): 23.6 mm
PAT [2]; b) 2 mM Jodacetamid, 60′, listed as Nr. 36
  Transacylierung von Isopenicillin N (#28 u 36) mit PaCoA (HH ⌀ mm): 22.1 mm
PAT [2]; b) 2 mM Jodacetamid, s (sofort), listed as Nr. 36
  Transacylierung von Isopenicillin N (#28 u 36) mit PaCoA (HH ⌀ mm): 25.2 mm
PAT [2]; c) 2 mM PMSF, 7′, listed as Nr. 36
  Transacylierung von Isopenicillin N (#28 u 36) mit PaCoA (HH ⌀ mm): 27.2 mm
PAT [2]; c) 2 mM PMSF, 30′, listed as Nr. 36
  Transacylierung von Isopenicillin N (#28 u 36) mit PaCoA (HH ⌀ mm): 27.7 mm
PAT [2]; c) 2 mM PMSF, 60′, listed as Nr. 36
  Transacylierung von Isopenicillin N (#28 u 36) mit PaCoA (HH ⌀ mm): 26.7 mm
PAT [2]; c) 2 mM PMSF, s (sofort), listed as Nr. 36
  Transacylierung von Isopenicillin N (#28 u 36) mit PaCoA (HH ⌀ mm): 26.3 mm

## CC1(C)S[C@@H]2[C@H](NC(=O)CCC[C@H](N)C(=O)O)C(=O)N2[C@H]1C(=O)O [Isopenicillin N]
PAT [3]; [5]
  mittels HPLC bestimmte spezifische Enzymaktivität (mU/mg Protein) A1 278/2: 146 mU/mg Protein
PAT [3]; [6]
  mittels HPLC bestimmte spezifische Enzymaktivität (mU/mg Protein) A1 278/2: 80 mU/mg Protein
PAT [3]; [7]
  mittels HPLC bestimmte spezifische Enzymaktivität (mU/mg Protein) A1 278/2: 150 mU/mg Protein

## CC1(C)S[C@@H]2[C@H](NC(=O)COc3ccccc3)C(=O)N2[C@H]1C(=O)O [Kalium Penicillin V]
PAT [4]; a) ohne Inhibitor, 7′
  Spaltung von Kalium Penicillin V (HH ⌀ mm): 21.8 mm
PAT [4]; a) ohne Inhibitor, 30′
  Spaltung von Kalium Penicillin V (HH ⌀ mm): 0 mm
PAT [4]; a) ohne Inhibitor, 60′
  Spaltung von Kalium Penicillin V (HH ⌀ mm): 0 mm
PAT [4]; a) ohne Inhibitor, s
  Spaltung von Kalium Penicillin V (HH ⌀ mm): 25.7 mm
PAT [4]; b) + 2 mM Jodacetamid, 7′
  Spaltung von Kalium Penicillin V (HH ⌀ mm): 23.1 mm
PAT [4]; b) + 2 mM Jodacetamid, 30′
  Spaltung von Kalium Penicillin V (HH ⌀ mm): 0 mm
PAT [4]; b) + 2 mM Jodacetamid, 60′
  Spaltung von Kalium Penicillin V (HH ⌀ mm): 0 mm
PAT [4]; b) + 2 mM Jodacetamid, s
  Spaltung von Kalium Penicillin V (HH ⌀ mm): 25.7 mm
PAT [4]; c) + 2 mM Ethylmaleinimid, 7′
  Spaltung von Kalium Penicillin V (HH ⌀ mm): 23.0 mm
PAT [4]; c) + 2 mM Ethylmaleinimid, 30′
  Spaltung von Kalium Penicillin V (HH ⌀ mm): 0 mm
PAT [4]; c) + 2 mM Ethylmaleinimid, 60′
  Spaltung von Kalium Penicillin V (HH ⌀ mm): 0 mm
PAT [4]; c) + 2 mM Ethylmaleinimid, s
  Spaltung von Kalium Penicillin V (HH ⌀ mm): 25.0 mm
PAT [4]; d) + 2 mM PMSF, 7′
  Spaltung von Kalium Penicillin V (HH ⌀ mm): 0 mm
PAT [4]; d) + 2 mM PMSF, 30′
  Spaltung von Kalium Penicillin V (HH ⌀ mm): 0 mm
PAT [4]; d) + 2 mM PMSF, 60′
  Spaltung von Kalium Penicillin V (HH ⌀ mm): 0 mm
PAT [4]; d) + 2 mM PMSF, s
  Spaltung von Kalium Penicillin V (HH ⌀ mm): 25.3 mm
[1]; Penicillin V Std. 0.25 µg/ml
  HH ⌀ mm: 11.9 mm
[1]; Penicillin V Std. 0.5 µg/ml
  HH ⌀ mm: 18.4 mm
[1]; Penicillin V Std. 1.0 µg/ml
  HH ⌀ mm: 23.4 mm
[1]; Penicillin V Std. 1.5 µg/ml
  HH ⌀ mm: 24.7 mm
[1]; Penicillin V Std. 2.0 µg/ml
  HH ⌀ mm: 27.4 mm

## CC1(C)S[C@@H]2[C@H](NC(=O)Cc3ccccc3)C(=O)N2[C@H]1C(=O)O [Penicillin G]
PAT [3]; [5]
  mittels HPLC bestimmte spezifische Enzymaktivität (mU/mg Protein) A1 278/2: 25 mU/mg Protein
PAT [3]; [7]
  mittels HPLC bestimmte spezifische Enzymaktivität (mU/mg Protein) A1 278/2: 17 mU/mg Protein

## CC1(C)S[C@@H]2[C@H](NC(=O)COc3ccccc3)C(=O)N2[C@H]1C(=O)O [Penicillin V]
[1]; Micrococcus luteus, ATCC9341, 15 h, Penicillin V Std. 0.25 µg/ml, read-out: HH ⌀ mm
  zone of inhibition at 0.25 µg/mL: 9.7 mm
[1]; Micrococcus luteus, ATCC9341, 15 h, Penicillin V Std. 0.5 µg/ml, read-out: HH ⌀ mm
  zone of inhibition at 0.5 µg/mL: 17.6 mm
[1]; Micrococcus luteus, ATCC9341, 15 h, Penicillin V Std. 1.0 µg/ml, read-out: HH ⌀ mm
  zone of inhibition at 1 µg/mL: 21.7 mm
[1]; Micrococcus luteus, ATCC9341, 15 h, Penicillin V Std. 1.5 µg/ml, read-out: HH ⌀ mm
  zone of inhibition at 1.5 µg/mL: 24 mm
[1]; Micrococcus luteus, ATCC9341, 15 h, Penicillin V Std. 2.0 µg/ml, read-out: HH ⌀ mm
  zone of inhibition at 2 µg/mL: 25.3 mm
[1]; Penicillin V Std. 0.25 µg/ml
  HH ⌀ mm: 11.9 mm
[1]; Penicillin V Std. 0.5 µg/ml
  HH ⌀ mm: 17.8 mm and 18.4 mm
[1]; Penicillin V Std. 1.0 µg/ml
  HH ⌀ mm: 23.4 mm
[1]; Penicillin V Std. 1.5 µg/ml
  HH ⌀ mm: 24.7 mm
[1]; Penicillin V Std. 2.0 µg/ml
  HH ⌀ mm: 27.4 mm
PAT [3]; [6]
  mittels HPLC bestimmte spezifische Enzymaktivität (mU/mg Protein) A1 278/2: 99 mU/mg Protein
PAT [3]; [7]
  mittels HPLC bestimmte spezifische Enzymaktivität (mU/mg Protein) A1 278/2: 75 mU/mg Protein

## Penicillin
[1]; Micrococcus luteus ATCC 9341, relative to 6-APA
  antibakterielle Sensitivität gegenüber Penicillin als gegenüber 6-APA: mehr als drei Zehnerpotenzen
